Results on four molecules are retold here after paper PMC8874959 (Viruses, 2022).

A word on the CC50: it is the concentration that lowers cell viability or growth by half. In general, EC50 refers to the concentration that produces a half-maximal response. The EC90 is the concentration at which the effect reaches the 90% level. A word on the Cmax: it is the highest concentration seen after dosing. For orientation: Log P means the decadic logarithm of the partition coefficient of the neutral form, usually between octanol and water. Usually LogP stands for the decadic logarithm of the partition coefficient of the neutral form, usually between octanol and water.

SMILES strings stand for the structures. Values after ≈ are worked out from the molar mass of the structure shown. “Also recorded” adds a separate entry of the source. Where two headings read alike, the source gives them in different places. Where only a bound is given, the exact number is not on record here.

Series [1] in a line: in vitro. In kind it is cell-based. To be noted: African green monkey.
The test system of series [2] is SARS-CoV-2. To be noted: cited from earlier work.
For series [3] the following is noted: cited from earlier work; for Plasma protein binding: Table S3, ref DrugBank, PubChem, Warhurst, et al JAC 2003, Schroeder and Gerber Toxicol. Rep. 2014.
Series [4] can be described thus: in vitro. The format is cell-based. The note with it: human.
The subject of another series is SARS-CoV-2 Gamma strain. The series can be described thus: microbe, parasite or virus in culture. The format is cell-based. To be noted: Severe acute respiratory syndrome coronavirus 2; Calu-3, Gamma strain, MOI 0.1, 48 hpi.
The test system of series [5] is SARS-CoV-2. The format is cell-based.
For series [6], the system named is SARS-CoV-2-infected monocytes. The format is cell-based, human.
The test system of series [7] is SARS-CoV-2. In kind it is cell-based. The source holds these as a separate data set.
For series [8], the system named is SARS-CoV-2. The note with it: Vero-E6, cited from earlier work.
The subject of the next series is tuberculosis. To be noted: cited from earlier work.
For series [9] the following is noted: cited from earlier work; for Cmax: human plasma.
For series [10] the following is noted: PBPK input, cited from earlier work.
The conditions of series [11]: ref DrugBank; PubChem; Warhurst, et al JAC 2003; Schroeder and Gerber Toxicol. Rep. 2014; cited from earlier work.

Regarding `CCN(CC)CCCC(C)Nc1ccnc2cc(Cl)ccc12` (stereo not drawn) [Chloroquine], in “in vitro [1]” (Vero E6, 72 h), half-maximal cytotoxicity (CC50 at 72 h) was put at 259 ± 5 µM. Also, the “Antiviral activity in SARS-CoV-2-infected Calu-3 cells” value in the series with SARS-CoV-2 [2] is “inactive; also recorded: lacks antiviral activity”. Also, the Plasma protein binding in series [3] is 46-74%.
As for `CCC(CC)COC(=O)[C@H](C)N[P@](=O)(OC[C@H]1O[C@@](C#N)(c2ccc3c(N)ncnn23)[C@H](O)[C@@H]1O)Oc1ccccc1` [Remdesivir], the CC50 in the series “in vitro [4]” was found to be 480 ± 20 µM; in the series “in vitro [1]”, 512 ± 30 µM. The response in the series on SARS-CoV-2 Gamma strain was half-maximal at 0.01 ± 0.008 µM (EC50). The molecule further gave an EC90 in the series with SARS-CoV-2 Gamma strain of 0.2 ± 0.02 µM. For the same molecule, the “Improvement of remdesivir's efficiency” value in the series on SARS-CoV-2 [5] stood at 200 fold.
`OC(c1cc(C(F)(F)F)nc2c(C(F)(F)F)cccc12)C1CCCCN1` (stereo not drawn) [Mefloquine] yielded a cytotoxic concentration (CC50) in the series “in vitro [4]” of 19.9 ± 0.06 µM. In the series “in vitro [1]”, this molecule came in with a CC50 of 9.2 ± 0.3 µM. In the series on SARS-CoV-2 Gamma strain, this molecule gave an EC50 of 1.2 ± 0.4 µM and an EC90 of 2.7 ± 0.3 µM. In [6], the “Virus-induced IL-6 levels” value is given as “reduce the augmentation of these cytokines in a donor-dependent manner”, the “Virus-induced TNF-α levels” value is reported as “reduce the augmentation of these cytokines in a donor-dependent manner” and the “Virus-induced monocyte death (LDH)” value is on record as “reduce virus-induced monocyte death”. Further, the “Number of viral particles in the endosomes” value in the series on SARS-CoV-2 [7] is “reduced the number of viral particles in the endosomes”. Besides, the EC90 in the series on SARS-CoV-2 [8] (ref 8 (supplement)) was 3.0643 µg/mL (≈ 8.1 µM). Further, in the series on SARS-CoV-2 [8] (ref 9 (supplement)), the EC90 was 2.4552 µg/mL (≈ 6.49 µM). Further, the EC90 in the series with SARS-CoV-2 [8] (ref 10 (supplement)) is 2.5138 µg/mL (≈ 6.64 µM). In the series on tuberculosis, the Minimal inhibitory concentration was 20 µM (≈ 7.57 µg/mL). In [9], the Half-life result is “measured in weeks” and the Cmax is 3279 ng/mL. In series [9] (equivalent), the highest concentration (Cmax) is 8.67 µM. Moreover, the Protein binding in series [3] (PBPK input, ref 12 (supplement)) was 98%. Besides, the Plasma protein binding in series [3] is recorded as greater than 98%. The Half-life in [10] (ref 11 (supplement)) is listed as 2-4 weeks. In series [10] (ref 12 (supplement)), the Intrinsic clearance is reported as 10.47 L/h, the “Log P” value is given as 3.87 and the “pKa (diprotic base)” value is 8.7. Further, in series [11], the LogP is 3.90, the Water solubility was 38 µg/mL, the pKa1 entry is reported as “lower than 3.0” and the pKa2 is given as 9.46. Further, the pKa3 in [11] was 13.79.
In the case of `CCN(CCO)CCCC(C)Nc1ccnc2cc(Cl)ccc12` (stereo not drawn) [Hydroxychloroquine, hydroxychloroquine], the “Antiviral activity in SARS-CoV-2-infected Calu-3 cells” value with SARS-CoV-2 [2] is listed as “lacks antiviral activity”. Also, the Plasma protein binding in series [3] was 50%. Besides, in [11], the “Lipinski’s rule of five” value is given as “Yes”, the LogP is given as 4.12, the Physiological charge entry is listed as “+2” and the pKa1 is recorded as less than 4.0. Besides, in series [11], the pKa2 is recorded as 8.3 and the pKa3 is 9.7.
